Among the data in patent US20220169628A1 (University of Florida Research Foundation, Incorporated, priority 2019, published 2022) are IC50 values, retold here.

Common to all, as to assay type: cell-based
Experiment [1] relates to MOLT-4 cells. The experiment is described as follows: Cell viability assay, MTS, 72 h, MOLT-4. To be noted: Homo sapiens; MOLT-4 cells, 72 h, MTS. The procedure:
(§1) Cancer cells from different tissue origins including acute lymphoblastic leukemia (MOLT4 and RS4; 11), small cell lung cancer (NCI-H146 or simply H146), and multiple myeloma (EJM and H929) were incubated with increasing concentrations of Examples 1-21 or ABT-263 for 72 h. Cell viability was measured by tetrazolium-based MTS assay. 5×10^4 to 1×10^5 suspension cells or 3×10^3 to 5×10^3 adherent cells were seeded and treated in 96-well plates for 72 h. The EC50 values of individual agents were calculated with GraphPad Prism.

A further experiment relates to RS4 cells. The experiment is described as follows: Cell viability assay, MTS, 72 h, RS4;11. To be noted: Homo sapiens. The procedure:
as §1

The test system of experiment [2] is MOLT-4 cells. Put plainly: Cell viability assay, MTS, 48 h, MOLT-4. To be noted: 48 hours, read-out: IC50 (48 hours) MOLT-4. The procedure: (§2) Acute lymphoblastic leukemia cells (MOLT-4 and RS4; 11) or small cell lung cancer (NCI-H146 or simply H146) were incubated with increasing concentrations of Bcl-xL degraders for 48 h. Cell viability was measured by tetrazolium-based MTS assay.

In another experiment the test system is RS4;11 cells. Put plainly: Cell viability assay, MTS, 48 h, RS4;11. Particulars: 48 hours, read-out: IC50 (48 hours) RS4;11. Here is the method:
as §2

Broadly, the IC50 is the midpoint of a concentration-inhibition curve. As for `Cc1ncsc1-c1ccc([C@H](C)NC(=O)[C@@H]2C[C@@H](O)CN2C(=O)[C@@H](NC(=O)COCCOCCOCCOCCOC(=O)N2CCC(c3ccc(Cl)cc3)=C(CN3CCN(c4ccc(C(=O)NS(=O)(=O)c5ccc(N[C@H](CCN6CCOCC6)CSc6ccccc6)c(S(=O)(=O)C(F)(F)F)c5)cc4)CC3)C2)C(C)(C)C)cc1` [Compound 36, (S)-16-((2S,4R)-4-hydroxy-2-(((S)-1-(4-(4-methylthiazol-5-yl)phenyl)ethyl)carbamoyl)pyrrolidine-1-carbonyl)-17,17-dimethyl-14-oxo-3,6,9,12-tetraoxa-15-azaoctadecyl 4-(4-chlorophenyl)-5-((4-(4-(((4-(((R)-4-morpholino-1-(phenylthio)butan-2-yl)amino)-3-((trifluoromethyl)sulfonyl)phenyl)sulfonyl)carbamoyl)phenyl)piperazin-1-yl)methyl)-3,6-dihydropyridine-1(2H)-carboxylate], the IC50 in the experiment with MOLT-4 cells [1] is 342 nM; in the experiment on RS4 cells, 1750 nM.
For the compound `Cc1ncsc1-c1ccc([C@H](C)NC(=O)[C@@H]2C[C@@H](O)CN2C(=O)[C@@H](NC(=O)CCCCC(=O)NCC2(C)CCC(c3ccc(Cl)cc3)=C(CN3CCN(c4ccc(C(=O)NS(=O)(=O)c5ccc(N[C@H](CCN6CCOCC6)CSc6ccccc6)c(S(=O)(=O)C(F)(F)F)c5)cc4)CC3)C2)C(C)(C)C)cc1` (stereo partly drawn) [Compound 49, N′-((4′-chloro-4-methyl-6-((4-(4-(((4-(((R)-4-morpholino-1-(phenylthio)butan-2-yl)amino)-3-((trifluoromethyl)sulfonyl)phenyl)sulfonyl)carbamoyl)phenyl)piperazin-1-yl)methyl)-2,3,4,5-tetrahydro-[1,1′-biphenyl]-4-yl)methyl)-N^6—((S)-1-((2S,4R)-4-hydroxy-2-(((S)-1-(4-(4-methylthiazol-5-yl)phenyl)ethyl)carbamoyl)pyrrolidin-1-yl)-3,3-dimethyl-1-oxobutan-2-yl)adipamide], the IC50 is 340 nM in the experiment on MOLT-4 cells [1] and 303 nM in the experiment on RS4 cells.
Take `Cc1ncsc1-c1ccc([C@H](C)NC(=O)[C@@H]2C[C@@H](O)CN2C(=O)[C@@H](NC(=O)CCCCCC(=O)NCC2(C)CCC(c3ccc(Cl)cc3)=C(CN3CCN(c4ccc(C(=O)NS(=O)(=O)c5ccc(N[C@H](CCN6CCOCC6)CSc6ccccc6)c(S(=O)(=O)C(F)(F)F)c5)cc4)CC3)C2)C(C)(C)C)cc1` (stereo partly drawn) [Compound 50, N^1-((4′-chloro-4-methyl-6-((4-(4-(((4-(((R)-4-morpholino-1-(phenylthio)butan-2-yl)amino)-3-((trifluoromethyl)sulfonyl)phenyl)sulfonyl)carbamoyl)phenyl)piperazin-1-yl)methyl)-2,3,4,5-tetrahydro-[1,1′-biphenyl]-4-yl)methyl)-N^7—((S)-1-((2S,4R)-4-hydroxy-2-(((S)-1-(4-(4-methylthiazol-5-yl)phenyl)ethyl)carbamoyl)pyrrolidin-1-yl)-3,3-dimethyl-1-oxobutan-2-yl)heptanediamide]: the IC50 in the experiment with MOLT-4 cells [1] was determined as 187 nM; with RS4 cells it was 99 nM.
On to `Cc1ncsc1-c1ccc([C@H](C)NC(=O)[C@@H]2C[C@@H](O)CN2C(=O)[C@@H](NC(=O)CCCCCCC(=O)NCC2(C)CCC(c3ccc(Cl)cc3)=C(CN3CCN(c4ccc(C(=O)NS(=O)(=O)c5ccc(N[C@H](CCN6CCOCC6)CSc6ccccc6)c(S(=O)(=O)C(F)(F)F)c5)cc4)CC3)C2)C(C)(C)C)cc1` (stereo partly drawn) [Compound 51, N^1-((4′-chloro-4-methyl-6-((4-(4-(((4-(((R)-4-morpholino-1-(phenylthio)butan-2-yl)amino)-3-((trifluoromethyl)sulfonyl)phenyl)sulfonyl)carbamoyl)phenyl)piperazin-1-yl)methyl)-2,3,4,5-tetrahydro-[1,1′-biphenyl]-4-yl)methyl)-N^8—((S)-1-((2S,4R)-4-hydroxy-2-(((S)-1-(4-(4-methylthiazol-5-yl)phenyl)ethyl)carbamoyl)pyrrolidin-1-yl)-3,3-dimethyl-1-oxobutan-2-yl)octanediamide], for which the IC50 in the experiment on MOLT-4 cells [1] was found to be 142 nM; with RS4 cells, 47 nM.
`Cc1ncsc1-c1ccc([C@H](C)NC(=O)[C@@H]2C[C@@H](O)CN2C(=O)[C@@H](NC(=O)CCCCCCCC(=O)NCC2(C)CCC(c3ccc(Cl)cc3)=C(CN3CCN(c4ccc(C(=O)NS(=O)(=O)c5ccc(N[C@H](CCN6CCOCC6)CSc6ccccc6)c(S(=O)(=O)C(F)(F)F)c5)cc4)CC3)C2)C(C)(C)C)cc1` (stereo partly drawn) [Compound 52, N^1-((4′-chloro-4-methyl-6-((4-(4-(((4-(((R)-4-morpholino-1-(phenylthio)butan-2-yl)amino)-3-((trifluoromethyl)sulfonyl)phenyl)sulfonyl)carbamoyl)phenyl)piperazin-1-yl)methyl)-2,3,4,5-tetrahydro-[1,1′-biphenyl]-4-yl)methyl)-N^9—((S)-1-((2S,4R)-4-hydroxy-2-(((S)-1-(4-(4-methylthiazol-5-yl)phenyl)ethyl)carbamoyl)pyrrolidin-1-yl)-3,3-dimethyl-1-oxobutan-2-yl)nonanediamide]: the IC50 came to 124 nM in the experiment with MOLT-4 cells [1] and 43 nM in the experiment with RS4 cells.
“(2S,4R)-1-((S)-2-(10-(4-(4-chlorophenyl)-5-((4-(4-(((4-(((R)-4-morpholino-1-(phenylthio)butan-2-yl)amino)-3-((trifluoromethyl)sulfonyl)phenyl)sulfonyl)carbamoyl)phenyl)piperazin-1-yl)methyl)-3,6-dihydropyridin-1(2H)-yl)-10-oxodecanamido)-3,3-dimethylbutanoyl)-4-hydroxy-N—((S)-1-(4-(4-methylthiazol-5-yl)phenyl)ethyl)pyrrolidine-2-carboxamide [Example 5]”: the IC50 with MOLT-4 cells [2] and in the experiment on RS4;11 cells was less than 50 nM each time.
As to “(2S,4R)-1-((S)-2-(11-(4-(4-chlorophenyl)-5-((4-(4-(((4-(((R)-4-morpholino-1-(phenylthio)butan-2-yl)amino)-3-((trifluoromethyl)sulfonyl)phenyl)sulfonyl)carbamoyl)phenyl)piperazin-1-yl)methyl)-3,6-dihydropyridin-1(2H)-yl)-11-oxoundecanamido)-3,3-dimethylbutanoyl)-4-hydroxy-N—((S)-1-(4-(4-methylthiazol-5-yl)phenyl)ethyl)pyrrolidine-2-carboxamide [Example 6]”, the results for the IC50 in the experiment with MOLT-4 cells [2] and in the experiment with RS4;11 cells were 50 to 150 nM and less than 50 nM, respectively.
The corresponding values for “(2S,4R)-1-((S)-2-(12-(4-(4-chlorophenyl)-5-((4-(4-(((4-(((R)-4-morpholino-1-(phenylthio)butan-2-yl)amino)-3-((trifluoromethyl)sulfonyl)phenyl)sulfonyl)carbamoyl)phenyl)piperazin-1-yl)methyl)-3,6-dihydropyridin-1(2H)-yl)-12-oxododecanamido)-3,3-dimethylbutanoyl)-4-hydroxy-N—((S)-1-(4-(4-methylthiazol-5-yl)phenyl)ethyl)pyrrolidine-2-carboxamide [Example 7]” are 50 to 150 nM and 50 to 150 nM.
As to “(S)-13-((2S,4R)-4-hydroxy-2-(((S)-1-(4-(4-methylthiazol-5-yl)phenyl)ethyl)carbamoyl)pyrrolidine-1-carbonyl)-14,14-dimethyl-11-oxo-3,6,9-trioxa-12-azapentadecyl 4-(4-chlorophenyl)-5-((4-(4-(((4-(((R)-4-morpholino-1-(phenylthio)butan-2-yl)amino)-3-((trifluoromethyl)sulfonyl)phenyl)sulfonyl)carbamoyl)phenyl)piperazin-1-yl)methyl)-3,6-dihydropyridine-1(2H)-carboxylate [Example 8]”, the IC50 with MOLT-4 cells [2] and in the experiment with RS4;11 cells was 150 to 500 nM each time.
